target: His6 USP28 (Homo sapiens (Human), UniProt Q96RU2); assay: Ubiquitin-Rhodamine 110 assay to determine USP28 IC50; assay type: biochemical; conditions: USP28 150 pM, Ub-Rho110 41 nM, 2 h pre-incubation with enzyme, fluorescence read
Procedure: Example 21. Ubiquitin-Rhodamine 110 Assay to Determine USP28 IC50
Each assay was performed in a final volume of 8 μl in assay buffer containing 10 mM HEPES pH 7.3 ((1 M, pH 7.3 solution, (VWR J848), 100 mM NaCl (5 M, Corning 46-032-CV), 0.01% Triton X-100 (Sigma #T8787), 3.5 mM DTT (1 M, Sigma #43819) and 0.00375% BSA (10%, Calbiochem, #126609)). The assay buffer pH was adjusted to 7.5 using 1 N NaOH (JT Baker, #5000-03). Stock compounds were stored at −80° C. as a 25 mM in DMSO solution along with their respective 20 point 2 fold serial dilutions. For the dose responses, stock compound plates were allowed to come to room temperature the day of the assay. […] of the serial dilution series were pre stamped into assay plates (Black, high base, medium binding, Greiner #782076) for a final top screening concentration of 125 μM (DMSO final concentration=0.5%). Enzyme (His6 USP28, BostonBiochem, #E-570) concentration and incubation times were optimized for the maximal signal to background while maintaining the initial velocity conditions at a fixed substrate concentration. The final concentration of the enzyme in the assay was 150 pM. Final substrate (Ub-Rhol10, Ubiquitin-Rhodamine 110, UBPBio, #M3020) concentration was 41 nM. 2 μl of 4× enzyme was added to assay plates (pre stamped with compound) and incubated for 2 h at room temperature. […] was subsequently added to the assay plates and incubated for 2 h at room temperature. Fluorescence was then read on the Envision (Excitation 485 nm and Emission at 535 nm, Perkin Elmer).

Chain of His6 USP28 (Q96RU2 whole entry): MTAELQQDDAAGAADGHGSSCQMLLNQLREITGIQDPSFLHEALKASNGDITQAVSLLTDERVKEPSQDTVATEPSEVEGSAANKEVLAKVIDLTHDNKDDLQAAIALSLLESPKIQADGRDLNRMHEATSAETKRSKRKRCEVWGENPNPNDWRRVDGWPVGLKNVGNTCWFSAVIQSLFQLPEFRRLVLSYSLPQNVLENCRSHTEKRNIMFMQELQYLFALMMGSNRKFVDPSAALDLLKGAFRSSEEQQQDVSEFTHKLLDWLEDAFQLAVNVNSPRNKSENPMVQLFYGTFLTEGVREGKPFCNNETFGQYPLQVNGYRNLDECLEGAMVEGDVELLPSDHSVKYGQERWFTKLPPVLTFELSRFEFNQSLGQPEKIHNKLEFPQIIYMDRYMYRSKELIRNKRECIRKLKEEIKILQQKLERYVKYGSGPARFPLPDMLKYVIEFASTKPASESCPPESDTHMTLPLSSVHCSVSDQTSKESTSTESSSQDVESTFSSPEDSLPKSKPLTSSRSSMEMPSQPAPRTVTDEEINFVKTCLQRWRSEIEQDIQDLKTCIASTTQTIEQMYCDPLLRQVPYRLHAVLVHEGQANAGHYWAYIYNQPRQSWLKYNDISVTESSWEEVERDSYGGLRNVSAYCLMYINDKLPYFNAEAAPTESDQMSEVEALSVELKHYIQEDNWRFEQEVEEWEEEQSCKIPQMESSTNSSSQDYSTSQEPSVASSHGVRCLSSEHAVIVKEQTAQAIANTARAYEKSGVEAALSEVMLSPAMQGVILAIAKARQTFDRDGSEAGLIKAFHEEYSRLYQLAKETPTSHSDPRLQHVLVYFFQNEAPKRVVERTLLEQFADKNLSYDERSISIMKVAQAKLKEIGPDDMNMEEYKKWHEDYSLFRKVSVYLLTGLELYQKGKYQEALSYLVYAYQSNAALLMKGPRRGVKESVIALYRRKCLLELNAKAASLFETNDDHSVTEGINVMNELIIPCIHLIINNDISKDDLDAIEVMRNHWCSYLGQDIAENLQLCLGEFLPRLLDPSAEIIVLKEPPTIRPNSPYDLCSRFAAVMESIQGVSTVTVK

Structure (SMILES) | IC50
N#CN1C[C@H](NC(=O)COc2ccc(-c3nc(Cc4ccccc4)no3)cc2)C[C@H]1CF [Compound 1, 2-[4-(3-Benzyl-1,2,4-oxadiazol-5-yl)phenoxy]-N-[(3R,5S)-1-cyano-5-(fluoromethyl)pyrrolidin-3-yl]acetamide] | > 1000 nM
C[C@@H]1C[C@@H](NC(=O)COc2ccc(-c3nc(Cc4ccccc4)no3)cc2)CN1C#N [Compound 2, 2-[4-(3-Benzyl-1,2,4-oxadiazol-5-yl)phenoxy]-N-[(3R,5R)-1-cyano-5-methylpyrrolidin-3-yl]acetamide] | > 1000 nM
C[C@@H]1C[C@@H](NC(=O)COc2ccc(-c3nc(Cc4cccc(Cl)c4)no3)cc2)CN1C#N [Compound 3, 2-(4-(3-(3-Chlorobenzyl)-1,2,4-oxadiazol-5-yl)phenoxy)-N-((3R,5R)-1-cyano-5-methylpyrrolidin-3-yl)acetamide] | 50 to 500 nM
C[C@@H]1C[C@@H](NC(=O)COc2ccc(-c3nc(Cc4ccc(Cl)cc4)no3)cc2)CN1C#N [Compound 4, 2-(4-{3-[(4-Chlorophenyl)methyl]-1,2,4-oxadiazol-5-yl}phenoxy)-N-[(3R,5R)-1-cyano-5-methylpyrrolidin-3-yl]acetamide] | 50 to 500 nM
C[C@@H]1C[C@@H](NC(=O)/C=C/c2ccc(-c3nc(Cc4cccc(Cl)c4)no3)cc2)CN1C#N [Compound 5, (E)-3-(4-(3-(3-Chlorobenzyl)-1,2,4-oxadiazol-5-yl)phenyl)-N-((3R,5R)-1-cyano-5-methylpyrrolidin-3-yl)acrylamide] | 50 to 500 nM
C[C@@H]1C[C@@H](NC(=O)COc2ccc(-c3nc(Cc4cccc(C(F)(F)F)c4)no3)cc2)CN1C#N [Compound 6, N-[(3R,5R)-1-Cyano-5-methylpyrrolidin-3-y1]-2-[4-(3-{[3-(trifluoromethyl)phenyl]methyl}-1,2,4-oxadiazol-5-y1)phenoxy]acetamide] | 50 to 500 nM
COc1cccc(Cc2noc(-c3ccc(OCC(=O)N[C@@H]4C[C@@H](C)N(C#N)C4)cc3)n2)c1 [Compound 7, N-[(3R,5R)-1-Cyano-5-methylpyrrolidin-3-yl]-2-(4-{3-[(3-methoxyphenyl)methyl]-1,2,4-oxadiazol-5-yl}phenoxy)acetamide] | > 1000 nM
C[C@@H]1C[C@@H](NC(=O)COc2ccc(-c3nc(Cc4cccc(C#N)c4)no3)cc2)CN1C#N [Compound 8, N-((3R,5R)-1-Cyano-5-methylpyrrolidin-3-yl)-2-(4-(3-(3-cyanobenzyl)-1,2,4-oxadiazol-5-yl)phenoxy)acetamide] | 500 to 1000 nM
Cc1cccc(Cc2noc(-c3ccc(OCC(=O)N[C@@H]4C[C@@H](C)N(C#N)C4)cc3)n2)c1 [Compound 9, N-[(3R,5R)-1-Cyano-5-methylpyrrolidin-3-yl]-2-(4-{3-[(3-methylphenyl)methyl]-1,2,4-oxadiazol-5-yl}phenoxy)acetamide] | 50 to 500 nM
C[C@@H]1C[C@@H](NC(=O)NCc2ccc(-c3nc(Cc4cccc(Cl)c4)no3)cc2)CN1C#N [Compound 10, 1-(4-(3-(3-Chlorobenzyl)-1,2,4-oxadiazol-5-yl)benzyl)-3-((3R,5R)-1-cyano-5-methylpyrrolidin-3-yl)urea] | 50 to 500 nM
C[C@@H]1C[C@@H](NC(=O)COc2ccc(-c3nc(Cc4cccc(Cl)c4)no3)nc2)CN1C#N [Compound 12, 2-[(6-{3-[(3-Chlorophenyl)methyl]-1,2,4-oxadiazol-5-yl}pyridin-3-yl)oxy]-N-[(3R,5R)-1-cyano-5-methylpyrrolidin-3-yl]acetamide] | > 1000 nM
C/C(=C\c1ccc(-c2nc(Cc3cccc(Cl)c3)no2)cc1)C(=O)N[C@@H]1C[C@@H](C)N(C#N)C1 [Compound 13, (E)-3-(4-(3-(3-chlorobenzyl)-1,2,4-oxadiazol-5-yl)phenyl)-N-((3R,5R)-1-cyano-5-methylpyrrolidin-3-yl)-2-methylacrylamide] | 500 to 1000 nM
Cc1oc(Cc2cccc(Cl)c2)nc1-c1ccc(/C=C/C(=O)N[C@@H]2C[C@@H](C)N(C#N)C2)cc1 [Compound 14, (E)-3-(4-(2-(3-Chlorobenzyl)-5-methyloxazol-4-yl)phenyl)-N-((3R,5R)-1-cyano-5-methylpyrrolidin-3-yl)acrylamide] | 50 to 500 nM
Cc1oc(Cc2cccc(Cl)c2)nc1-c1ccc(/C=C/C(=O)N[C@H]2CN[C@H](C)C2)cc1 [Compound 15, (E)-3-(4-(2-(3-Chlorobenzyl)-5-methyloxazol-4-yl)phenyl)-N-((3R,5R)-5-methylpyrrolidin-3-yl)acrylamide] | 50 to 500 nM
C[C@@H]1C[C@@H](NC(=O)Cc2ccc(-c3nc(Cc4cccc(Cl)c4)no3)cc2)CN1C#N [Compound 16, 2-(4-{3-[(3-Chlorophenyl)methyl]-1,2,4-oxadiazol-5-yl}phenyl)-N-[(3R,5R)-1-cyano-5-methylpyrrolidin-3-yl]acetamide] | > 1000 nM
C[C@@H]1C[C@@H](NC(=O)/C=C/c2cccc(-c3nc(Cc4cccc(Cl)c4)no3)c2)CN1C#N [Compound 17, (2E)-3-(3-{3-[(3-Chlorophenyl)methyl]-1,2,4-oxadiazol-5-yl}phenyl)-N-[(3R,5R)-1-cyano-5-methylpyrrolidin-3-yl]prop-2-enamide] | > 1000 nM
CN(C)C(=O)c1ccc(OCc2ccc(-c3nc(Cc4cccc(Cl)c4)no3)cc2)cc1 [Compound 18, 4-((4-(3-(3-Chlorobenzyl)-1,2,4-oxadiazol-5-yl)benzyl)oxy)-N,N-dimethylbenzamide] | 50 to 500 nM
Cc1ccc(C(=O)NCc2ccc(-c3nc(Cc4cccc(Cl)c4)no3)cc2)cn1 [Compound 19, N-[(4-{3-[(3-Chlorophenyl)methyl]-1,2,4-oxadiazol-5-yl}phenyl)methyl]-6-methylpyridine-3-carboxamide] | 500 to 1000 nM
Cc1oc(Cc2cccc(Cl)c2)nc1-c1ccc(COc2ccc(C(=O)N(C)C)cc2)cc1 [Compound 21, 4-((4-(2-(3-Chlorobenzyl)-5-methyloxazol-4-yl)benzyl)oxy)-N,N-dimethylbenzamide] | < 50 nM
Cc1oc(Cc2cccc(Cl)c2)nc1-c1ccc(OCc2ccc(C(=O)N(C)C)cc2)cc1 [Compound 22, 4-((4-(2-(3-Chlorobenzyl)-5-methyloxazol-4-yl)phenoxy)methyl)-N,N-dimethylbenzamide] | < 50 nM
Cc1oc(Cc2cccc(Cl)c2)nc1-c1ccc(OCc2cc(C(=O)N(C)C)n(C)n2)cc1 [Compound 23, 3-((4-(2-(3-Chlorobenzyl)-5-methyloxazol-4-yl)phenoxy)methyl)-N,N,1-trimethyl-1H-pyrazole-5-carboxamide] | 50 to 500 nM
Cc1oc(Cc2cccc(Cl)c2)nc1-c1ccc(OCc2ccc(C(=O)N(C)C)cn2)cc1 [Compound 24, 6-[(4-{2-[(3-Chlorophenyl)methyl]-5-methyl-1,3-oxazol-4-yl}phenoxy)methyl]-N,N-dimethylpyridine-3-carboxamide] | < 50 nM
Cc1oc(Cc2cccc(Cl)c2)nc1-c1ccc(OCc2ccc(C(=O)N(C)C)nn2)cc1 [Compound 25, 6-[(4-{2-[(3-Chlorophenyl)methyl]-5-methyl-1,3-oxazol-4-yl}phenoxy)methyl]-N,N-dimethylpyridazine-3-carboxamide] | < 50 nM
Cc1oc(Cc2cccc(Cl)c2)nc1-c1ccc(OCc2ncc(C(=O)N(C)C)cn2)cc1 [Compound 26, 2-[(4-{2-[(3-Chlorophenyl)methyl]-5-methyl-1,3-oxazol-4-yl}phenoxy)methyl]-N,N-dimethylpyrimidine-5-carboxamide] | < 50 nM
Cc1oc(Cc2cccc(Cl)c2)nc1-c1ccc(OCc2cnc(C(=O)N(C)C)cn2)cc1 [Compound 28, 5-[(4-{2-[(3-Chlorophenyl)methyl]-5-methyl-1,3-oxazol-4-yl}phenoxy)methyl]-N,N-dimethylpyrazine-2-carboxamide] | < 50 nM
Cc1oc(Cc2cccc(Cl)c2)nc1-c1ccc(OCc2ccc(C(=O)N3CC4CCC(C3)N4)cn2)cc1 [Compound 29, (3,8-Diazabicyclo[3.2.1]octan-3-yl)(6-((4-(2-(3-chlorobenzyl)-5-methyloxazol-4-yl)phenoxy)methyl)pyridin-3-yl)methanone] | < 50 nM
Cc1oc(Cc2cnn(C)c2)nc1-c1ccc(OCc2ccc(C(=O)N(C)C)cn2)cc1 [Compound 30] | 50 to 500 nM
Cc1oc(Cc2ccnc(Cl)c2)nc1-c1ccc(OCc2ccc(C(=O)N(C)C)cn2)cc1 [Compound 31, 6-[(4-{2-[(2-Chloropyridin-4-yl)methyl]-5-methyl-1,3-oxazol-4-yl}phenoxy)methyl]-N,N-dimethylpyridine-3-carboxamide] | 50 to 500 nM
Cc1oc(Cc2cccc(Cl)c2)nc1-c1ccc(OCc2ccc(C(=O)N3CCC[C@@H](C(=O)O)C3)cn2)cc1 [Compound 32, (3R)-1-{6-[(4-{2-[(3-Chlorophenyl)methyl]-5-methyl-1,3-oxazol-4-yl}phenoxy)methyl]pyridine-3-carbonyl}piperidine-3-carboxylic acid] | < 50 nM
Cc1oc(Cc2cccc(Cl)c2)nc1-c1ccc(OCc2ccc(C(=O)N(C)C)cc2COCCO)cc1 [Compound 33, 4-((4-(2-(3-Chlorobenzyl)-5-methyloxazol-4-yl)phenoxy)methyl)-3-((2-hydroxyethoxy)methyl)-N,N-dimethylbenzamide] | < 50 nM
